Experimental data reported in US20120029187A1, “HALOALKYLSULFONANILIDE DERIVATIVE” (Nissan Chemical Industries, Ltd., priority 2009, published 2012).

Columns and labels:
Format in all cases: in vivo
barnyardgrass [1] = experiment: Test Example 1: herbicidal effects in preemergence treatment under submerged conditions; settings: dose 2.52 g/a
Summary of the method: (§1)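 Score 0–5 by mortality (5: ≥90%; 0: <5%), read 3 weeks post-application. Paddy-type cups: alluvial soil under 4 cm water, weeds seeded plus transplanted 2.5-leaf rice; diluted EC dosed onto water surface same day as sowing, g/a basis; greenhouse 25 to 30° C.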

ducksalad [2] = experiment: as above; settings: dose 2.52 g/a
Summary of the method: as §1

bulrush [3] = experiment: as above; settings: dose 2.52 g/a
Summary of the method: as §1

barnyardgrass [4] = experiment: Test Example 2: herbicidal effects during the vegetation period under submerged conditions; settings: treatment during the vegetation period under submerged conditions; dose 2.52 g/a
Summary of the method: (§2)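 Barnyardgrass, bulrush and ducksalad were co-sown in alluvial soil flooded to 4 cm and grown in a greenhouse at 25 to 30° C. At the 1- or 2-leaf stage, water-diluted emulsifiable concentrates went onto the water surface at set doses (g/a). Herbicidal effect was scored three weeks later on a graded scale.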

ducksalad [5] = experiment: as above; settings: treatment during the vegetation period under submerged conditions; dose 2.52 g/a
Summary of the method: as §2

bulrush [6] = experiment: as above; settings: treatment during the vegetation period under submerged conditions; dose 2.52 g/a
Summary of the method: as §2

common ragweed [7] = experiment: Test Example 3: herbicidal effects in soil treatment; settings: dose 3.2 g/a
Summary of the method: (§3)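 Seeds were sown in sterilized diluvial soil and covered with about 1.5 cm of soil. Compounds, formulated as emulsifiable concentrates and diluted with water, were sprayed evenly over the soil surface at set doses in g/a. Herbicidal effect was scored on a rating scale three weeks later.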

barnyardgrass [8] = experiment: as above; settings: dose 3.2 g/a
Summary of the method: as §3

common lambsquater [9] = experiment: as above; settings: dose 3.2 g/a
Summary of the method: as §3

large crabgrass [10] = experiment: as above; settings: dose 3.2 g/a
Summary of the method: as §3

common chickweed [11] = experiment: as above; settings: dose 3.2 g/a
Summary of the method: as §3

redroot pigweed [12] = experiment: as above; settings: dose 3.2 g/a
Summary of the method: as §3

Italian ryegrass [13] = experiment: as above; settings: dose 3.2 g/a
Summary of the method: as §3

water foxtail [14] = experiment: as above; settings: dose 3.2 g/a
Summary of the method: as §3

beadstraw [15] = experiment: as above; settings: dose 3.2 g/a
Summary of the method: as §3

giant foxtail [16] = experiment: as above; settings: dose 3.2 g/a
Summary of the method: as §3

common ragweed [17] = experiment: Test Example 4: herbicidal effect in foliage treatment; settings: dose 3.2 g/a, three weeks after the application
Summary of the method: (§4)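 Foliar spray, post-emergence: 14-day-old greenhouse plants (25–30° C, diluvial soil) treated with water-diluted EC at set g/a doses; visual herbicidal score at 3 wk post-application.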

posumbu knotweed [18] = experiment: as above; settings: dose 3.2 g/a, three weeks after the application
Summary of the method: as §4

barnyardgrass [19] = experiment: as above; settings: dose 3.2 g/a, three weeks after the application
Summary of the method: as §4

common lambsquater [20] = experiment: as above; settings: dose 3.2 g/a, three weeks after the application
Summary of the method: as §4

large crabgrass [21] = experiment: as above; settings: dose 3.2 g/a, three weeks after the application
Summary of the method: as §4

common chickweed [22] = experiment: as above; settings: dose 3.2 g/a, three weeks after the application
Summary of the method: as §4

redroot pigweed [23] = experiment: as above; settings: dose 3.2 g/a, three weeks after the application
Summary of the method: as §4

velvetleaf [24] = experiment: as above; settings: dose 3.2 g/a, three weeks after the application
Summary of the method: as §4

Italian ryegrass [25] = experiment: as above; settings: dose 3.2 g/a, three weeks after the application
Summary of the method: as §4

water foxtail [26] = experiment: as above; settings: dose 3.2 g/a, three weeks after the application
Summary of the method: as §4

wild oat [27] = experiment: as above; settings: dose 3.2 g/a, three weeks after the application
Summary of the method: as §4

giant foxtail [28] = experiment: as above; settings: dose 3.2 g/a, three weeks after the application
Summary of the method: as §4

transplanted rice = experiment: Test Example 1: preemergence treatment under submerged conditions, effect on crop; settings: dose 2.52 g/a
Summary of the method: as §1

posumbu knotweed [29] = experiment: Test Example 3: herbicidal effects in soil treatment; settings: dose 3.2 g/a
Summary of the method: as §3

velvetleaf [30] = experiment: as above; settings: dose 3.2 g/a
Summary of the method: as §3

beadstraw [31] = experiment: Test Example 4: herbicidal effect in foliage treatment; settings: dose 3.2 g/a, three weeks after the application
Summary of the method: as §4

wild oat [32] = experiment: Test Example 3: herbicidal effects in soil treatment; settings: dose 3.2 g/a
Summary of the method: as §3

Compound | A: barnyardgrass, herbicidal effect (evaluation scale 0-5) (barnyardgrass [1]) | C: ducksalad, herbicidal effect (evaluation scale 0-5) (ducksalad [2]) | B: bulrush, herbicidal effect (evaluation scale 0-5) (bulrush [3]) | A: barnyardgrass, herbicidal effect (evaluation scale 0-5) (barnyardgrass [4]) | C: ducksalad, herbicidal effect (evaluation scale 0-5) (ducksalad [5]) | B: bulrush, herbicidal effect (evaluation scale 0-5) (bulrush [6]) | J: common ragweed, herbicidal effect (common ragweed [17]) | M: posumbu knotweed, herbicidal effect (posumbu knotweed [18]) | A: barnyardgrass, herbicidal effect (barnyardgrass [19]) | L: common lambsquater, herbicidal effect (common lambsquater [20]) | D: large crabgrass, herbicidal effect (large crabgrass [21]) | N: common chickweed, herbicidal effect (common chickweed [22]) | K: redroot pigweed, herbicidal effect (redroot pigweed [23]) | I: velvetleaf, herbicidal effect (velvetleaf [24]) | H: Italian ryegrass, herbicidal effect (Italian ryegrass [25]) | G: water foxtail, herbicidal effect (water foxtail [26]) | E: giant foxtail, herbicidal effect (giant foxtail [28]) | a: transplanted rice, effect on crop (evaluation scale 0-5) (transplanted rice) | herbicidal effect, J: common ragweed (common ragweed [7]) | herbicidal effect, A: barnyardgrass (barnyardgrass [8]) | further results
CC1OC(C)(C)CC(=O)N1Cc1ccccc1NS(=O)(=O)C(F)(F)F (stereo not drawn) [II-72] | 5 (mortality of 90% or above (nearly complete death)) | 5 (mortality of 90% or above (nearly complete death)) | 5 (mortality of 90% or above (nearly complete death)) | 5 (mortality of 90% or above (nearly complete death)) | 5 (mortality of 90% or above (nearly complete death)) | 5 (mortality of 90% or above (nearly complete death)) | 3 (mortality of at least 40% and less than 70%) | 3 (mortality of at least 40% and less than 70%) | 4 (mortality of at least 70% and less than 90%) | 1 (mortality of at least 5% and less than 20%) | 4 (mortality of at least 70% and less than 90%) | 3 (mortality of at least 40% and less than 70%) | 2 (mortality of at least 20% and less than 40%) | 5 (mortality of 90% or above (nearly complete death)) | 5 (mortality of 90% or above (nearly complete death)) | 5 (mortality of 90% or above (nearly complete death)) | 4 (mortality of at least 70% and less than 90%) | 3 (mortality of at least 40% and less than 70%) | – | – | J: common ragweed, herbicidal effect (evaluation scale 0-5) (common ragweed [7]): 4 (mortality of at least 70% and less than 90%); A: barnyardgrass, herbicidal effect (evaluation scale 0-5) (barnyardgrass [8]): 5 (mortality of 90% or above (nearly complete death)); L: common lambsquater, herbicidal effect (evaluation scale 0-5) (common lambsquater [9]): 0 (mortality of less than 5% (almost ineffective)); D: large crabgrass, herbicidal effect (evaluation scale 0-5) (large crabgrass [10]): 5 (mortality of 90% or above (nearly complete death)); N: common chickweed, herbicidal effect (evaluation scale 0-5) (common chickweed [11]): 4 (mortality of at least 70% and less than 90%); K: redroot pigweed, herbicidal effect (evaluation scale 0-5) (redroot pigweed [12]): 3 (mortality of at least 40% and less than 70%); H: Italian ryegrass, herbicidal effect (evaluation scale 0-5) (Italian ryegrass [13]): 5 (mortality of 90% or above (nearly complete death)); G: water foxtail, herbicidal effect (evaluation scale 0-5) (water foxtail [14]): 5 (mortality of 90% or above (nearly complete death)); O: beadstraw, herbicidal effect (evaluation scale 0-5) (beadstraw [15]): 4 (mortality of at least 70% and less than 90%); E: giant foxtail, herbicidal effect (evaluation scale 0-5) (giant foxtail [16]): 5 (mortality of 90% or above (nearly complete death)); F: wild oat, herbicidal effect (wild oat [27]): 1 (mortality of at least 5% and less than 20%)
CCC1CON(Cc2ccccc2NS(=O)(=O)C(F)(F)F)C(=O)O1 (stereo not drawn) [III-5] | 5 (mortality of 90% or above (nearly complete death)) | 5 (mortality of 90% or above (nearly complete death)) | 5 (mortality of 90% or above (nearly complete death)) | 5 (mortality of 90% or above (nearly complete death)) | 5 (mortality of 90% or above (nearly complete death)) | 5 (mortality of 90% or above (nearly complete death)) | 4 (mortality of at least 70% and less than 90%) | 0 (mortality of less than 5% (almost ineffective)) | 5 (mortality of 90% or above (nearly complete death)) | 3 (mortality of at least 40% and less than 70%) | 0 (mortality of less than 5% (almost ineffective)) | 3 (mortality of at least 40% and less than 70%) | 0 (mortality of less than 5% (almost ineffective)) | 3 (mortality of at least 40% and less than 70%) | 1 (mortality of at least 5% and less than 20%) | 5 (mortality of 90% or above (nearly complete death)) | 3 (mortality of at least 40% and less than 70%) | 0 (mortality of less than 5% (almost ineffective)) | 4 (mortality of at least 70% and less than 90%) | 5 (mortality of 90% or above (nearly complete death)) | herbicidal effect, M: posumbu knotweed (posumbu knotweed [29]): 4 (mortality of at least 70% and less than 90%); herbicidal effect, L: common lambsquater (common lambsquater [9]): 5 (mortality of 90% or above (nearly complete death)); herbicidal effect, D: large crabgrass (large crabgrass [10]): 5 (mortality of 90% or above (nearly complete death)); herbicidal effect, N: common chickweed (common chickweed [11]): 5 (mortality of 90% or above (nearly complete death)); herbicidal effect, K: redroot pigweed (redroot pigweed [12]): 0 (mortality of less than 5% (almost ineffective)); herbicidal effect, I: velvetleaf (velvetleaf [30]): 5 (mortality of 90% or above (nearly complete death)); herbicidal effect, H: Italian ryegrass (Italian ryegrass [13]): 5 (mortality of 90% or above (nearly complete death)); herbicidal effect, G: water foxtail (water foxtail [14]): 5 (mortality of 90% or above (nearly complete death)); herbicidal effect, O: beadstraw (beadstraw [15]): 4 (mortality of at least 70% and less than 90%); herbicidal effect, E: giant foxtail (giant foxtail [16]): 5 (mortality of 90% or above (nearly complete death)); O: beadstraw, herbicidal effect (beadstraw [31]): 3 (mortality of at least 40% and less than 70%)
CCOC(=O)N(c1ccccc1CN1C(=O)C(Br)C(C)(C)OC1C)S(=O)(=O)C(F)(F)F (stereo not drawn) [II-76] | – | – | – | – | – | – | – | – | – | – | – | – | – | – | – | – | – | – | 0 (mortality of less than 5% (almost ineffective)) | 3 (mortality of at least 40% and less than 70%) | herbicidal effect, L: common lambsquater (common lambsquater [9]): 3 (mortality of at least 40% and less than 70%); herbicidal effect, D: large crabgrass (large crabgrass [10]): 3 (mortality of at least 40% and less than 70%); herbicidal effect, N: common chickweed (common chickweed [11]): 3 (mortality of at least 40% and less than 70%); herbicidal effect, K: redroot pigweed (redroot pigweed [12]): 3 (mortality of at least 40% and less than 70%); herbicidal effect, I: velvetleaf (velvetleaf [30]): 3 (mortality of at least 40% and less than 70%); herbicidal effect, H: Italian ryegrass (Italian ryegrass [13]): 0 (mortality of less than 5% (almost ineffective)); herbicidal effect, G: water foxtail (water foxtail [14]): 5 (mortality of 90% or above (nearly complete death)); herbicidal effect, O: beadstraw (beadstraw [15]): 5 (mortality of 90% or above (nearly complete death)); herbicidal effect, F: wild oat (wild oat [32]): 0 (mortality of less than 5% (almost ineffective)); herbicidal effect, E: giant foxtail (giant foxtail [16]): 0 (mortality of less than 5% (almost ineffective))
